Experimental data as given in PubChem BioAssay (NCI).
Values joined by “and” are separate entries in the source; they are usually repeats but may differ in a detail not shown here. Equal values may be shown once.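 96-well plates; 48 h exposure; 5 concentrations. Endpoints by linear interpolation between flanking doses. Not reached: highest tested concentration assigned. GI50 = concentration required for 50% inhibition of growth. TGI: total growth inhibition.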

How the values were obtained:
Assay in all cases: inhibition of tumour cell growth, NCI panel, 48 h
SNB-78 CNS = system: SNB-78 CNS
A498 renal = system: A498 renal
OVCAR-8 ovarian = system: OVCAR-8 ovarian
SK-MEL-5 melanoma = system: SK-MEL-5 melanoma
A549 NSCLC = system: A549 NSCLC
HCT-116 colon = system: HCT-116 colon
KM20L2 colon = system: KM20L2 colon
TK-10 renal = system: TK-10 renal
SR leukemia = system: SR leukemia
LXFL 529 NSCLC = system: LXFL 529 NSCLC

SMILES | TGI (SNB-78 CNS) | GI50 (A498 renal) | TGI (A498 renal) | GI50 (OVCAR-8 ovarian) | TGI (OVCAR-8 ovarian) | GI50 (SK-MEL-5 melanoma) | TGI (SK-MEL-5 melanoma) | GI50 (A549 NSCLC) | TGI (A549 NSCLC) | GI50 (HCT-116 colon) | TGI (KM20L2 colon) | TGI (TK-10 renal) | TGI (SR leukemia) | TGI (LXFL 529 NSCLC) | TGI (HCT-116 colon) | GI50 (TK-10 renal) | GI50 (SR leukemia)
CC(=O)O[C@H]1C(=O)O[C@@H]2C[C@H]3C(C)=CC(=O)[C@@H](O)[C@]3(C)[C@H]3[C@@]4(O)OC[C@]32[C@@H]1[C@@H](C)[C@H]4O | 0.384 µM | 0.187 µM | 1.19 µM and 0.385 µM | 0.0266 µM | 1.55 µM and 0.218 µM | < 0.01 µM | 0.0287 µM and 0.052 µM | 0.23 µM and 0.431 µM | 3.32 µM and 3.93 µM | < 0.01 µM | 2.43 µM | – | – | – | – | – | –
N/C(=N\N=C\c1cccs1)NO | > 100 µM | – | > 100 µM | – | > 100 µM | – | – | – | > 100 µM | – | – | > 100 µM | > 100 µM | > 100 µM | > 100 µM | – | –
CC1(C)OC(C(N)=O)=C(C(N)=O)O1 | – | – | > 100 µM | – | > 100 µM | – | – | – | > 100 µM | – | > 100 µM | > 100 µM | > 100 µM | > 100 µM | > 100 µM | – | –
C#CCOCn1cnc2c(=S)nc[nH]c21 | – | – | > 100 µM | – | > 100 µM | – | > 100 µM | – | > 100 µM | – | > 100 µM | > 100 µM | – | > 100 µM | – | – | –
O=C1C(=O)N(C(=O)c2ccc(Cl)c(Cl)c2)c2ccc(Cl)cc21 | > 100 µM | – | 63.8 µM | – | > 100 µM | – | > 100 µM | – | > 100 µM | – | – | > 100 µM | > 100 µM | > 100 µM | – | – | –
CC(=O)NC(CCCCNC(=O)N(CCCl)N=O)C(=O)NCc1ccccc1 (stereo not drawn) | – | – | – | – | > 100 µM | – | – | – | > 100 µM | – | > 100 µM | – | > 100 µM | > 100 µM | > 100 µM | – | –
COC(=O)C1=CN=C(C(=O)OC)NN1 | – | – | – | – | > 100 µM | – | > 100 µM | – | > 100 µM | – | > 100 µM | > 100 µM | > 100 µM | > 100 µM | > 100 µM | – | –
C[C@@H](CO)OCOCc1ccccc1 | > 100 µM | – | > 100 µM | – | – | – | > 100 µM | – | > 100 µM | – | – | – | – | > 100 µM | > 100 µM | – | –
CCOC(=O)c1ccc(N(CCOS(C)(=O)=O)CCOS(C)(=O)=O)cc1C | – | 24.1 µM | 73.3 µM | 44 µM | > 100 µM | 35.9 µM | > 100 µM | 44.5 µM | > 100 µM | 33.4 µM | – | > 100 µM | > 100 µM | – | > 100 µM | 50.7 µM | 2.83 µM
C=C1C(=O)O[C@@H]2C(=O)[C@@H](C)[C@@H]3C=CC(=O)[C@@]3(C)[C@@H](OC(=O)/C(C)=C\C)[C@H]12 | – | – | 3.44 µM | – | 12 µM | – | 3.13 µM | – | 32.6 µM | – | – | 1.74 µM | 0.712 µM | – | 0.681 µM | – | –
COc1cc(C#N)cc(OC)c1OCCOCCOc1c(OC)cc(C#N)cc1OC | – | 35.4 µM | > 100 µM | 51.3 µM | > 100 µM | 69.8 µM | > 100 µM | > 100 µM | > 100 µM | > 100 µM | – | > 100 µM | > 100 µM | – | > 100 µM | > 100 µM | 4.33 µM
Clc1cc(Cl)c(Cl)c(-c2nc(-c3cccnc3)cs2)c1 | – | 53.9 µM | > 100 µM | 14.3 µM | 66.5 µM | 23.6 µM | > 100 µM | 24.8 µM | > 100 µM | 5.3 µM | – | 56.6 µM | > 100 µM | – | > 100 µM | 20.5 µM | > 100 µM
O=C1/C(=C\C(Cl)=C/c2ccc([N+](=O)[O-])cc2)SC(=S)N1CCc1ccc(O)cc1 | – | 1.63 µM | 3.07 µM | 0.414 µM | 4.2 µM | 1.63 µM | 3.01 µM | 1.6 µM | 8.79 µM | 0.201 µM | – | 3.25 µM | – | – | 0.455 µM | 1.53 µM | 0.327 µM
Cc1cccc2c(N=Nc3ccc(S(N)(=O)=O)cc3)c(O)[nH]c12 | – | > 25 µM | > 25 µM | > 25 µM | > 25 µM | > 25 µM | > 25 µM | > 25 µM | > 25 µM | > 25 µM | – | > 25 µM | > 25 µM | – | > 25 µM | > 25 µM | > 25 µM
CCOC(=O)c1c(C)nc2ccc(Cl)cc2c1-c1ccccc1 | – | 15.5 µM | 33.4 µM | 26.7 µM | > 100 µM | 14.5 µM | 29 µM | 25.6 µM | > 100 µM | 12.3 µM | – | > 100 µM | 48.5 µM | – | 28.8 µM | 34.4 µM | 18.4 µM
Nc1ncnc2c1nc(-c1ccccc1)n2C1OC(CO)C(O)C1O (stereo not drawn) | – | – | > 100 µM | – | > 100 µM | – | > 100 µM | – | > 100 µM | – | – | > 100 µM | > 100 µM | – | > 100 µM | – | –
CCCc1cc2cc(-n3nc(C)c4c3CC(C)(C)CC4=O)cc(NC3CCC(O)CC3)c2c(=O)[nH]1 (stereo not drawn) | – | 0.437 µM | > 100 µM | 0.519 µM | > 100 µM | 0.241 µM | 3.56 µM | 0.215 µM | > 100 µM | 0.0634 µM | – | > 100 µM | > 100 µM | – | > 100 µM | 0.0964 µM | 0.122 µM
